# In patent US20250042969A1, “ANTIGEN DISCOVERY FOR T CELL RECEPTORS ISOLATED FROM PATIENT TUMORS RECOGNIZING WILD-TYPE ANTIGENS AND POTENT PEPTIDE MIMOTOPES” (The Board of Trustees of the Leland Stanford Junior …, priority 2017, published 2025):
# No end group written: not given here.
# Tests used:
# [1] = tested on: SKW-3 cells expressing TCR 3B; test: pHLA tetramer staining of SKW-3 cells expressing TCR 3B; format: binding, human
# TCR 3B [2] = test: TCR 3B tetramer staining of yeast expressing single-chain peptide-HLA-A*02:01; format: binding, human; conditions: 400 nM TCR tetramer
# Experimental: (§1) Individual yeast clones isolated from the selections or competent yeast electroporated with reconstructed peptide-HLA constructs identified from the deep sequencing were stained with 400 nM TCR tetramer labeled with SA-647 or SA-647 alone in combination with anti-epitope tag.
# Target sequence in this assay (as listed by the source): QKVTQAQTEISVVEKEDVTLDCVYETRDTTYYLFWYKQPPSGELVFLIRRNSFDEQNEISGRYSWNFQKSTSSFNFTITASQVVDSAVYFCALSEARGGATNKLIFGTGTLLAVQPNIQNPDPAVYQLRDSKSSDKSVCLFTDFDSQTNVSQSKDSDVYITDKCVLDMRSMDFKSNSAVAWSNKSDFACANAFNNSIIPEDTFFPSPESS
# Target sequence in this assay (as listed by the source): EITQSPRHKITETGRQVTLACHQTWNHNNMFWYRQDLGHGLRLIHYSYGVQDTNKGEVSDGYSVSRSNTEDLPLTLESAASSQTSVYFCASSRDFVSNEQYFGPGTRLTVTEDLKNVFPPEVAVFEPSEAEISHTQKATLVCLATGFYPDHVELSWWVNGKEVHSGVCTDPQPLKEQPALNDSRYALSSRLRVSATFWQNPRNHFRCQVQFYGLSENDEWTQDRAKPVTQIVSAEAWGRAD
# TCR 2A [3] = test: TCR 2A tetramer staining of yeast expressing single-chain peptide-HLA-A*02:01; format: binding, human; conditions: 400 nM TCR tetramer
# Experimental: as §1
# Target sequence in this assay (as listed by the source): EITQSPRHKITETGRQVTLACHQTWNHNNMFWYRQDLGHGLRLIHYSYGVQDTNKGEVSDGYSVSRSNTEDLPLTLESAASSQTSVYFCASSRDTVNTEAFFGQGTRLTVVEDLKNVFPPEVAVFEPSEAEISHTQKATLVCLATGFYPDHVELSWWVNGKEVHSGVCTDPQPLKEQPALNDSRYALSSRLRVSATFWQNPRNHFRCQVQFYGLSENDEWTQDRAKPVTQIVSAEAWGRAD
# [4] = tested on: SKW-3 cells expressing TCR2A; test: pHLA tetramer staining of SKW-3 cells expressing TCR2A; format: binding, human
# SKW-3 cells expressing TCR2A, sequence (as listed by the source): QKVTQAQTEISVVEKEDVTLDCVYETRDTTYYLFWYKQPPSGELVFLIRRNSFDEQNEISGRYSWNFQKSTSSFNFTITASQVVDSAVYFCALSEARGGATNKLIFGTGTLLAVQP
# SKW-3 cells expressing TCR2A, sequence (as listed by the source): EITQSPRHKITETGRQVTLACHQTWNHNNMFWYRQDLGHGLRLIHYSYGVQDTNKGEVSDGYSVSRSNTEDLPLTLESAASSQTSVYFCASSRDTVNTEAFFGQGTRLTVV
# TCR 3B [5] = test: CD69 activation of SKW-3 T cells expressing TCR 3B co-cultured with peptide-pulsed T2 cells; conditions: T2 cells pulsed with 100 μM peptide 3 hours, co-incubated 18 hours, flow cytometry
# Target sequence in this assay (as listed by the source): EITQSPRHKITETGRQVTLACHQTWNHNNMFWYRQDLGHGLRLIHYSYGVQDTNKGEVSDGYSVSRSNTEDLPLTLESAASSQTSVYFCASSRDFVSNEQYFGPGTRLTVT
# Target sequence in this assay (P61769 21-119): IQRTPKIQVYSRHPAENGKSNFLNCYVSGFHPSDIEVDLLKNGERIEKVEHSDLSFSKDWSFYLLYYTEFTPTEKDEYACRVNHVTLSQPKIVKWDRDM
# Text: (§2) Measuring T cell activation in co-culture assays. The four TCRs identified from the colorectal cancer patients that selected peptides from the library were cloned into a MSCV-based vector pMIG II in α-P2A-β configuration using the wildtype signal peptides of the TCR variable genes and full length, unmodified constant regions. The P2A skip sequence allows for 1:1 stoichiometric expression of the TCRs. A MSCV-based vector pMIG II was also used to generate human CD3 in the format of δ-F2A-γ-T2A-ε-P2A-ζ. A packaging vector pCL10A was used to incorporate env, gag, and pol to allow for human mammalian tropism and viral generation. […]
# (§3) The transduced SKW-3 cells were co-cultured with TAP-deficient T2 cells in a 2:1 ratio with various peptide dilutions. The top 5 synthetic peptides isolated from the yeast-display selections were tested along with predictions determined from the 3 prediction algorithms. […] CD69 (FN50, BioLegend) was measured at 18 hours to detect early T cell activation by flow cytometry using the Accuri C6 (BD Biosciences). SKW-3 T cells were detected by UCHT1 staining and checked for TCR and CD3 expression. […] Data was analyzed using FlowJo version 10 (FlowJo, LLC) and samples were gated on SKW-3 cells by forward and side scatter and UCHT1+ cells followed by analysis for CD69 expression. […]
# (§4) T-cell stimulation assays using SKW-3 cells. […] All biological triplicates were analyzed collectively.
# TCR 2A [6] = test: CD69 activation of SKW-3 T cells expressing TCR 2A co-cultured with peptide-pulsed T2 cells; conditions: T2 cells pulsed with 100 μM peptide 3 hours, co-incubated 18 hours, flow cytometry
# Target sequence in this assay (P61769 21-119): as above
# Text: as §2, §3, §4
# NKI2 = test: IFNγ production by NKI2-transduced peripheral blood lymphocytes with peptide-pulsed JY cells; format: cell-based, human; conditions: 1:1 with peptide-pulsed JY cells, 5-hour incubation, intracellular staining
# Experimental: CDK4-specific TCRs clone 10 (NKI1) and 17 (NKI2) were derived from TILs of a melanoma patient that were screened with HLA multimers loaded with predicted neoantigens, essentially as described. The variable parts of both TCRs were cloned into a retroviral vector encoding the murine TCR α and β constant domains. FLYRD18 packaging cells were plated in 10 cm dishes at 1.2×10^6 cells/well. After one day, cells were transfected with 10 μg retroviral vector DNA encoding the CDK4 TCRs using 25 μl X-tremeGENE HP DNA (Sigma-Aldrich). After 48 hrs, retroviral supernatant was isolated and transferred to retronectin-coated 24-well plates and centrifuged for 90 minutes at 430 g. PBMCs were activated and selected with anti-CD3/CD28 beads (ThermoFisher) at a bead-to-cell ratio of 3:1. Forty-eight hours after stimulation, T cells were plated at 0.5×10^6 cells/mL on virus-coated plates. Surface expression of the introduced CDK4 TCRs on transduced T cells was measured using APC labeled CDK4 R>L HLA-A*02:01 tetramers in combination with anti-murine VB TCR-PE labeled antibody (BD Biosciences). Cells were analyzed using a FACSCalibur (Becton Dickinson). JY cells were pulsed with the CDK4 peptide or the predicted peptides at the indicated concentrations for 1 hr at 37° C. and then washed two times. […]
# TCR 4B = test: CD69 activation of SKW-3 T cells expressing TCR 4B co-cultured with peptide-pulsed T2 cells; conditions: T2 cells pulsed with 100 μM peptide 3 hours, co-incubated 18 hours, flow cytometry
# Text: Measuring T cell activation in co-culture assays. The four TCRs identified from the colorectal cancer patients that selected peptides from the library were cloned into a MSCV-based vector pMIG II in α-P2A-β configuration using the wildtype signal peptides of the TCR variable genes and full length, unmodified constant regions. The P2A skip sequence allows for 1:1 stoichiometric expression of the TCRs. A MSCV-based vector pMIG II was also used to generate human CD3 in the format of δ-F2A-γ-T2A-ε-P2A-ζ. A packaging vector pCL10A was used to incorporate env, gag, and pol to allow for human mammalian tropism and viral generation. The vectors introduced puromycin and zeocin selectivity into infected cells. […] The viruses were generated using X-tremeGENE 9 DNA transfection reagent (Sigma-Aldrich) in serum-free DMEM. In cell culture, 2% FBS DMEM was used to recover the cells and media was changed at 12 hours. […] The 2 mL virus of TCR and 2 mL virus of human CD3 was used to co-infect 2×10^6 SKW-3 cells with 5 ug/mL polybrene (Millipore) by spinning for 2 hrs at 2500 rpm at 32° C. The virus was removed and replaced with media and cells cultured. The transduced SKW-3 cells were cultured after 2-3 days in 20 ug zeocin and 1 ug puromycin indefinitely to select for TCR and human CD3 co-expression. Cells were then co-stained for TCR (IP26, BioLegend) and human CD3 (UCHT1, BioLegend) and sorted on the SH800 cell sorter (Sony Biotechnology Inc.).
# The transduced SKW-3 cells were co-cultured with TAP-deficient T2 cells in a 2:1 ratio with various peptide dilutions. The top 5 synthetic peptides isolated from the yeast-display selections were tested along with predictions determined from the 3 prediction algorithms. Peptides were synthesized to >70% purity (Genscript) (Elim Biopharm) and resuspended in dimethylsulfoxide to 20 mM and stored at −20° C. CD69 (FN50, BioLegend) was measured at 18 hours to detect early T cell activation by flow cytometry using the Accuri C6 (BD Biosciences). SKW-3 T cells were detected by UCHT1 staining and checked for TCR and CD3 expression. T2 cells were checked for HLA-A*02 expression by antibody (BB7.2, BioLegend). Data was analyzed using FlowJo version 10 (FlowJo, LLC) and samples were gated on SKW-3 cells by forward and side scatter and UCHT1+ cells followed by analysis for CD69 expression. Experiments were done in biological triplicate and technical triplicate. P-values were calculated by ordinary one-way ANOVA in Prism and experiments plotted with either standard deviation or standard error of the mean as indicated.
# T-cell stimulation assays using SKW-3 cells. Data is analyzed using Flowjo to gate SKW-3 cells and CD3^+ group to identify T cells. T cells are then gated on CD69 expression using the negative control (no peptide). The median MFI expression of CD69 in the CD3^+ group and the percentage of cells expressing CD69 have been analyzed. One-way ordinary ANOVA was determined for both analyses using Prism in comparison to the negative control (no peptide). The 100 μM peptide stimulation is completed in biological and technical triplicate. Only one of the biological triplicates is shown. The peptide titration experiments were done in biological triplicate. All biological triplicates were analyzed collectively.
substance,measurement,setting,value
"MMDFFNAQM-HLA-A*02:01: U2AF2 peptide MMDFFNAQM in complex with HLA-A*02:01, as yeast single-chain trimer or refolded tetramer (not fully specified (C-terminus); also: in complex with HLA-A*02:01 (single-chain trimer or refolded tetramer))",pHLA tetramer staining of SKW-3 cells expressing TCR 3B,[1],failed to stain
same,TCR 3B tetramer staining of yeast,TCR 3B [2],lack of TCR tetramer staining
same,TCR 2A tetramer staining of yeast,TCR 2A [3],lack of TCR tetramer staining
same,pHLA tetramer staining of SKW-3 cells expressing TCR2A,[4],failed to stain
MMDFFNAQM,CD69 activation of TCR 3B T cell line,TCR 3B [5],found to stimulate T cells
same,CD69 activation of TCR 2A T cell line,TCR 2A [6],found to stimulate T cells
ALDSRSEHFM [top peptide mimotope selected by NKI2],IFNγ production by NKI2 transduced T cells,NKI2,stimulated these cells as potently as the CDK4 neoantigen
NMEYMTWDV,CD69 activation of TCR 4B T cell line,TCR 4B,stimulated
VLDFQGQL,CD69 activation of TCR 2A T cell line,TCR 2A [6],able to stimulate the receptor
VLEEVDWLI,CD69 activation of TCR 4B T cell line,TCR 4B,stimulated
KLEQLDWTV,CD69 activation of TCR 4B T cell line,TCR 4B,stimulated
TMETIDWKV,CD69 activation of TCR 4B T cell line,TCR 4B,stimulated
NVEYYDIKL,CD69 activation of TCR 4B T cell line,TCR 4B,stimulated
TLEELDWCL,CD69 activation of TCR 4B T cell line,TCR 4B,stimulated
LLEDLDWDV,CD69 activation of TCR 4B T cell line,TCR 4B,stimulated
